pIC50: −log10 of the molar value.

Data on three compounds can be found in the Kinase Knowledgebase extract (Sharma et al. 2016).

Assay [1] addresses MAPK14 (human) (UniProt Q16539). The assay can be described thus: Inhibition of MAPK14 Kinase Activity.
Assay [2] has the same target. The assay can be described thus: Inhibition of IL-6 Release in LPS Stimulated Whole Blood Cells.
Assay [3] has the same target. The assay can be described thus: Inhibition of TNF-alpha Release in LPS Stimulated Whole Blood Cells.
Assay [4] has the same target. Kind of assay: Inhibition of IL-1 beta Release in LPS Stimulated Whole Blood Cells.
Assay [5] has the same target. Kind of assay: Inhibition of TNF-alpha Production in LPS Stimulated PBMC.
Assay [6] shares this target. Kind of assay: Inhibition of IL-1beta Production in LPS Stimulated PBMC.

MAPK14 (human), sequence (Q16539 whole entry, looked up): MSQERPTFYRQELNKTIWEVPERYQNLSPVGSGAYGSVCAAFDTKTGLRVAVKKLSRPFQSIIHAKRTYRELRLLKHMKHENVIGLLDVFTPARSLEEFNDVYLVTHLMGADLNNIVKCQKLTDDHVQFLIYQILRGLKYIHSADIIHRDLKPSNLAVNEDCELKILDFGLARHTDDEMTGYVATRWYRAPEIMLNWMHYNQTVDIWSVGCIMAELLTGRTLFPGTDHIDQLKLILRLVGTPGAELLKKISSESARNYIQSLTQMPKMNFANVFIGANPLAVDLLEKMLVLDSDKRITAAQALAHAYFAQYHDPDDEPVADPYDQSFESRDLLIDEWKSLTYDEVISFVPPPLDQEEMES

The term pIC50 denotes the negative decadic logarithm of the IC50, by convention in mol/L. Read a low pIC50 as a high IC50. `CN(C)C=NC(=O)OCc1ccc(N(C(=O)N=CN(C)C)c2c(F)cccc2F)nc1-c1ccc(F)cc1F`: the pIC50 against MAPK14 (human) [1] was 5.30; against MAPK14 (human) [2] it was 6.10; at MAPK14 (human) [3], 5.37; on MAPK14 (human) [4] it was 5.66.

On to `CN(C)C=NC(=O)OCc1ccc(N(C(N)=O)c2c(F)cccc2F)nc1-c1ccc(F)cc1F`, for which the pIC50 was 6.00 at MAPK14 (human) [1]; 4.96 against MAPK14 (human) [2]; 7.30 against MAPK14 (human) [5]; 4.70 against MAPK14 (human) [3]; 4.91 on MAPK14 (human) [4]; 7.30 against MAPK14 (human) [6].

With `CC(C)[C@H](N)C(=O)OCCNC(=O)OCc1ccc(N(C(N)=O)c2c(F)cccc2F)nc1-c1ccc(F)cc1F`, the pIC50 was 7.51 against MAPK14 (human) [1]; 7.08 against MAPK14 (human) [2]; 7.66 against MAPK14 (human) [5]; 7.26 at MAPK14 (human) [3]; 6.85 against MAPK14 (human) [4]; 7.92 at MAPK14 (human) [6].
